How the values were obtained:
[1] = Acute toxicity of SODF, intragastric administration to rats; format: in vivo; conditions: 3000 mg/kg
Method: (§1) Evaluation of SODF acute toxicity and tolerated toxic and lethal doses for single intragastric administration to male and female mice and rats. Evaluation was carried out for 24 male rats weighing 235-260 g and […] female rats weighing 225-250 g as well as for 24 male mice weighing 21-25 g and 24 female mice weighing 20-24 g. All in all, there were 8 groups in each of the four categories. SODF was administered in the largest possible volume 10 ml/kg three times a day at a 40-minute interval. Prior to administration, SODFs were dispersed, then ground in a mortar and mixed with a 0.5% Tween 80 solution to obtain a suspension suitable for intragastric administration to animals at a dose of ≤10 ml/kg. Solutions for administration were always prepared on the day of administration. Prepared SODF suspensions were administered at the same time every day (within a deviation of maximum 4 hours). […] On each of the 14 days following SODF administration, the weights of rats and mice were recorded and the animals were examined to detect any cases of death or abnormal condition. In this way, parameters of acute SODF toxicity were established.

[2] = Acute toxicity of SODF, intragastric administration to mice; format: in vivo; conditions: 3000 mg/kg
Method: as §1

HBV = assay: Anti-HBV activity in AD38 cells (secreted HBV DNA, qPCR); format: cell-based; conditions: 4-day incubation
Method: (§2) Anti-HBV activity of tenofovir of formulas 4f, 4h, 4k, 4m (test compounds) was evaluated in the cell line of human hepatoma AD38 carrying integrated HBV DNA with terminal repeats [Lander S, et. al, Antimicrobial Agents and Chemotherapy, 1997, pp. 1715-1720]. The cell line was made available by Dr. C. Seeger, Fox Chase Cancer Center, Philadelphia, Pa.). Simultaneously, cytotoxicity was evaluated.
The cells were cultivated in complete DMEM/F12 culture medium containing 2 mM of L-glutamine (Thermo Scientific, Cat #11320033), 10% fetal bovine serum (ThermoFisher Scientific, Cat#), 1% antibiotic-antimycotic solution (ThermoFisher Scientific, Cat#15240096), and 0.3 μg/ml of tetracycline (Sigma, Cat # T7660-5G). The cells were seeded into 96-well Corning Biocoat plates (Corning, Cat # 356407) in 225 μl of complete medium without tetracycline, 20 000 cells per well. The test compounds were dissolved first in DMSO (Sigma cat. D2650), then in DMEM/F12 medium, and 9 dilutions in log 3 steps (225 μl) were added to the cells. The final concentrations of test compounds varied from […] to 1 nM. […]
The technique of real-time quantitative polymerase chain reaction (RT-qPCR) was applied using the CFX96TM Real-Time System instrument (Bio-Rad, Hercules, Calif.) and polymerase AmpliTaq Gold® DNA Polymerase (Applied Biosystems®). […]
The fluorescent signal was read at the end of each cycle. […]

SupT1 cells = assay: Cytotoxicity in non-infected SupT1 cells (XTT reagent); format: cell-based
Method: (§3) The anti-HIV activity of active ingredients (test compounds) was evaluated using SupT1 cells. The cells were infected with the NL4.3 HIV strain carrying a gene of green fluorescence protein (NL4.3-GFP). The virus preparation was obtained by transfection of 293T cells of proviral DNA. Forty-eight hours after the transfection, the preparation was frozen and stored until use. To enhance the infection efficiency, the suspension of SupT1 cells was precipitated from the infection mixture by centrifugation. Test compounds were added to the cells immediately before virus addition. After a 2-hour incubation, the infection mixture was replaced by fresh culture medium with test compounds. The infection efficiency was evaluated following 45 hours by counting the percent of fluorescing cells against noninfected cell cultures. The cytotoxicity of test compounds was evaluated simultaneously at the same, but not infected, SupT1 cellular line using the XTT reagent. To this end, serial ten-fold dilutions of test compounds were prepared (starting with 10 μM to evaluate viral activity or with 100 μM to evaluate cytotoxicity). […] As a result, the values of activity EC50, cytotoxicity CC50, and selectivity index SI were calculated. The test quality was evaluated using the following controls: signal to background ratio, integrase inhibitor raltegravir (1 μM), and reproducibility of the test. […]

[3] = system: NL4.3 HIV strain (NL4.3-GFP); assay: Anti-HIV activity in SupT1 cells infected with NL4.3-GFP; format: cell-based; conditions: read after 45 hours
Method: as §3

AD38 cell line = assay: Cytotoxicity in AD38 cells (ATPLite); format: cell-based, human; conditions: 3 days
Method: as §2
The cytotoxicity of test compounds was determined simultaneously on the same AD38 cell line. The cells were cultivated in a 96-well black plate with a transparent bottom (10^4 cells/well) in complete DMEM/F12 medium containing 2 mM of L-glutamine (Thermo Scientific, Cat #11320033), 10% fetal bovine serum (ThermoFisher Scientific, Cat#), and 1% antibiotic-antimycotic solution (ThermoFisher Scientific, Cat#15240096). The AD38 cells were seeded in 96-well plates (7.5×10^3 cells/well in 100 μl of medium). The solutions of test compounds in DMEM were prepared immediately before use. […] The number of living cells was counted using the ATPLite kit (Perkin Elmer, Boston, USA) in compliance with manufacturer's instructions. […] After additional 5-minute incubation on a rocking platform at 600 rev/min, the plates were kept in dark for 10 minutes, and the luminescence was read using TopCount NXT (Packard, Perkin Elmer). […] CC50 values (Table 2) were then determined using XLfit 4 software.

| Structure (SMILES) | body weight gain [1] | body weight gain [2] | EC50 (HBV) [nM] | CC50 (SupT1 cells) [nM] | EC50 [3] [nM] | CC50 (AD38 cell line) [nM] |
| --- | --- | --- | --- | --- | --- | --- |
| CCC(=O)[N-]S(=O)(=O)c1ccc(NC(=O)Cc2ccc(Br)c(Oc3cc(Cl)cc(C#N)c3)c2F)c(Cl)c1.[Na+] [Compound 1a, elsulfavirine sodium] | did not affect body weight gain | did not affect body weight gain | – | – | – | – |
| CC(C)OC(=O)[C@H](C)N[P@](=O)(CO[C@H](C)Cn1cnc2c(N)ncnc21)Oc1ccccc1 [Compound 4f, tenofovir alafenamide hemifumarate] | – | – | 0.3 to 0.7 | > 100000 | 43 | 3000 |

— patent US20200206248A1, “COMBINED MEDICINAL PREPARATION FOR TREATING VIRAL INFECTIONS” (ALLA CHEM, LLC, priority 2017, published 2020)
